These are literature values, as cited in patent US20240373890A1, “SWEETENER AND FLAVORING COMPOSITIONS PREPARED BY GLYCOSYLATED MOGROSIDES OR MONK FRUIT EXTRACTS, METHOD OF MAKING AND METHOD OF USE THEREOF” (EPC NATURAL PRODUCTS CO., LTD., priority 2021, published 2024).

For this data set the following is noted: depends on the tested concentration compared with sucrose.

Residues, ends and D or L forms follow the SMILES beside them.

Consider `COC(=O)[C@H](Cc1ccccc1)NC(=O)[C@@H](N)CC(=O)O` [Aspartame] (H-Asp-Phe-OMe), for which the “Sweetness intensity compared with sucrose” value is on record as 160-200 times.

Regarding `C[C@H](CC[C@@H](O[C@@H]1O[C@H](CO[C@@H]2O[C@H](CO)[C@@H](O)[C@H](O)[C@H]2O)[C@@H](O)[C@H](O)[C@H]1O[C@@H]1O[C@H](CO)[C@@H](O)[C@H](O)[C@H]1O)C(C)(C)O)[C@H]1CC[C@@]2(C)[C@@H]3CC=C4[C@@H](CC[C@H](O[C@@H]5O[C@H](CO[C@@H]6O[C@H](CO)[C@@H](O)[C@H](O)[C@H]6O)[C@@H](O)[C@H](O)[C@H]5O)C4(C)C)[C@]3(C)[C@H](O)C[C@]12C` [mogroside V], the “Sweetness intensity compared with sucrose” value is 250-300 times.

As to `O=S(=O)([O-])NC1CCCCC1.[Na+]` [sodium cyclamate], the “Sweetness intensity compared with sucrose” value is listed as “about 30 times”.

With `OC[C@H]1O[C@H](O[C@]2(CCl)O[C@H](CCl)[C@@H](O)[C@@H]2O)[C@H](O)[C@@H](O)[C@H]1Cl` [sucralose], the “Sweetness intensity compared with sucrose” value was “about 600 times”.

Take thaumatin: the “Sweetness intensity compared with sucrose” value is given as “about 2000 times”.
